Columns and labels:
A3 cells = experiment: Annexin V-staining (apoptosis); type: cell-based, human; details: 72 h
Method: The annexin V staining experiment was performed using BD Pharmingen FITC Annexin V Apoptosis Detection Kit I (cat.no 556547) according to the protocol given in the kit. Cells were washed with ice-cold PBS and then washed with 1X Annexin buffer diluted in ice-cold PBS. To the washed pellet of cells, PI and FITC Annexin V dye was added and incubated at room temperature in dark for 15 mins. After the incubation, 400 µl of annexin buffer was added and run in Navios flow cytometer (Beckman Coulter) to detect the apoptosis with blue laser(488 nm, filter 525/40 nm) and dead cells with blue laser(488 nm, filter 620/30 nm). Kaluza Flow Analysis (Beckman Coulter) was used for data analysis.
Figure 4. Anticancer properties overlap between OGG1 loss and OGG1 inhibitors. (A) Viability of T-cell acute […] leukemia cell lines treated for 5 days with the indicated doses TH5487. Data are average ±SD of independent experiments (A3, n = 5; Jurkat, n = 3; MOLT-4, n = 4; CCRF-CEM, n = 3). (B) Relative cell numbers and (C) viability (%) for A3 cells treated for 5 days with 10 μM TH5487. Data are average ±SD of six replicates from three independent experiments. […] Statistical significance was determined using unpaired, two-sided t-tests (*P < 0.05, **P < 0.01, ***P < 0.001, ****P < 0.0001, ns, non-significant).

MCM4 mRNA in A3 cells = experiment: Real time PCR of MCM4 mRNA; type: cell-based, human; details: 10 μM, 72 h
Method: RNA was extracted from cultured cells using TRIzol® Reagent (Thermo Fisher Scientific). RNA quantity and quality were assessed by NanoDrop® (ND-1000 V3.7.1; Thermo Fisher Scientific). The High-Capacity cDNA Reverse Transcription Kit (Applied Biosystems) was utilized for cDNA synthesis following the manufacturer's instructions. Two microliters of cDNA at a final concentration of 10 ng/μl were mixed with GoTaq® qPCR MasterMix 1× (Promega) and 1 μM cDNA primers of each pair of primers (F/R) in a final volume reaction of 10 μl. Primers used are listed in Supplementary Table S2. The amplification conditions consisted of an initial step at 95°C for 10 min, followed by 40 cycles of 10 s at 95°C and 1 min at 60°C. Each qPCR was performed in duplicates or triplicates including no-template controls in an Abi QuantStudio 1 Flex Real-Time PCR System (Applied Biosystems). Relative transcript levels for each replication gene, was calculated using the 2ΔΔCt method for qPCR analysis after normalization with the housekeeping gene beta-actin (B-actin-F 5′-CCTGGCACCCAGCACAAT- 3′; B-actin-R 5′ - GGGCCGGACTCGTCATACT-3′).
Figure 6. […] Only genes with a mean normalized count >5 were analyzed. […] Statistical significance was determined using a two-sided unpaired t-test (ns, non-significant, *P < 0.05, **P < 0.01, ***P < 0.001 and ****P < 0.0001).

SMILES: O=C(Nc1ccc(I)cc1)N1CCC(n2c(=O)[nH]c3c(Br)cccc32)CC1 [TH5487]
- Apoptosis (Annexin V-propidium iodide) (A3 cells; 20 μM): more substantial
- Apoptosis (Annexin V-propidium iodide) (A3 cells; 5 and 10 μM): slight but significant increase in apoptosis
- MCM4 mRNA levels (MCM4 mRNA in A3 cells): slight but significant downregulation

— article PMC7708037, “Targeting OGG1 arrests cancer cell proliferation by inducing replication stress” (Nucleic Acids Research, 2020)
